What is called Ki is the dissociation constant of the complex between target and ligand, obtained from inhibition or displacement.

Holding throughout (assay type): biochemical
One test addresses T1, TYK2 (Homo sapiens, UniProt P29597).
T1 construct: made in house; host or cells: SF9 insect cells (baculovirus)
T1 sequence (P29597 873-1187): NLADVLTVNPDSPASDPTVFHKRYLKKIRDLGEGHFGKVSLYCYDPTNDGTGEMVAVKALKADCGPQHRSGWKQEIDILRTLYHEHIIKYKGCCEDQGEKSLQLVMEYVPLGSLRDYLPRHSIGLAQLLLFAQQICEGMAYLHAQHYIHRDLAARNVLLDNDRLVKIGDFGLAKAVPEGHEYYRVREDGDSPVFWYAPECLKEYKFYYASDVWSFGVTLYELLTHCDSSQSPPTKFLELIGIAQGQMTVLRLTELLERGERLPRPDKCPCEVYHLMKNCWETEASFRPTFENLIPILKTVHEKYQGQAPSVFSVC
Kind of test: TYK2 inhibition (Table 4).

The target of the next test is T2, JAK3 (Homo sapiens, UniProt P52333).
T2 construct: made in house; host or cells: SF9 insect cells (baculovirus)
T2 sequence (P52333 783-1124): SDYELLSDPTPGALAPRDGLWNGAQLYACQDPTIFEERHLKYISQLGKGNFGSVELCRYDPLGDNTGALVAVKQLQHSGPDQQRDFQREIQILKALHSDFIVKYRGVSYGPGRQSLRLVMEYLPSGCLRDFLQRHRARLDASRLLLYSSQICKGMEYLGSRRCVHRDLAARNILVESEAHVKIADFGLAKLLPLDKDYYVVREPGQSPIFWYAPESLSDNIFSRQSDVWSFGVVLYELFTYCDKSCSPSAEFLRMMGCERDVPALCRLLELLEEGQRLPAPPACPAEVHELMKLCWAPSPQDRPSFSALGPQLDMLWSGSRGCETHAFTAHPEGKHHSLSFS
Kind of test: JAK3 inhibition (Table 4). The settings on record: read-out: JAK3 Ki.

Another test concerns the target T3, JAK2 (Homo sapiens, UniProt O60674).
T3 construct: made in house; host or cells: SF9 insect cells (baculovirus)
Kind of test: JAK2 inhibition (Table 4). The following applies: read-out: JAK2 Ki.

The target in another test is T4, JAK1 (Homo sapiens, UniProt P23458).
T4 construct: made in house; host or cells: SF9 insect cells (baculovirus)
T4 sequence (P23458 852-1154): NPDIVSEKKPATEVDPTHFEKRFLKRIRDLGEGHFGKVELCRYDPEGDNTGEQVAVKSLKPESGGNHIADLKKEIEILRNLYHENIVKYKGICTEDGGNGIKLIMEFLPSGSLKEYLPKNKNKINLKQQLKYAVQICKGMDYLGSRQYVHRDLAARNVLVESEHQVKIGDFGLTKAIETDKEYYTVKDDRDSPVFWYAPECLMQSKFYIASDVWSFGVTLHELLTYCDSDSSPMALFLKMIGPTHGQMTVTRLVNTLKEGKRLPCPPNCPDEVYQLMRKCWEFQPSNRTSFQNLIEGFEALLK
Kind of test: JAK1 inhibition (Table 4). The following applies: read-out: JAK1 Ki.

T3 sequence (O60674 812-1132): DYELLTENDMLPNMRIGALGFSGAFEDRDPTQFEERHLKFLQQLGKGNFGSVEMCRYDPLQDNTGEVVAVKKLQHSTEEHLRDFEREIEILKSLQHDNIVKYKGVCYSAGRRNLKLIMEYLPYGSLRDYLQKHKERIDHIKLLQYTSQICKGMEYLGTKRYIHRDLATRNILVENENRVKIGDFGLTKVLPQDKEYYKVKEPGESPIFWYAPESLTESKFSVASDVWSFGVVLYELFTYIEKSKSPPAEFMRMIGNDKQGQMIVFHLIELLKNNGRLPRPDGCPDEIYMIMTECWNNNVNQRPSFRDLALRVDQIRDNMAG

In the case of `N#CCC(=O)N1CCCC(n2cnc3cnc4[nH]ccc4c32)CC1` (racemic) [Example 485, 3-Oxo-3-[4-(6H-1,3,5,6-tetraaza-as-indacen-1-yl)-azepan-1-yl]-propionitrile], the Ki amounted to 6.6 nM at TYK2, 19 nM on JAK3, 1.91 nM on JAK2 and 1.07 nM at JAK1.

Regarding `Cc1nc2cnc3[nH]ccc3c2n1C1CCc2[nH]ncc2C1` (racemic) [Example 486, 2-Methyl-1-(4,5,6,7-tetrahydro-1H-indazol-5-yl)-1,6-dihydro-1,3,5,6-tetraaza-as-indacene], the Ki at TYK2 came out at 21.9 nM; at JAK3 it was 10.1 nM; at JAK2, 6.24 nM; at JAK1 it was 3.45 nM.

Regarding `c1cncc(CN2CCCC(n3cnc4cnc5[nH]ccc5c43)CC2)c1` (racemic) [Example 487, 1-(1-Pyridin-3-ylmethyl-azepan-4-yl)-1,6-dihydro-1,3,5,6-tetraaza-as-indacene], the Ki at TYK2 was determined as 234 nM; at JAK3, 37.1 nM; at JAK2, 30.8 nM; on JAK1 it was 16.5 nM.

Turning to `Cc1nc2cnc3[nH]ccc3c2n1C1CCc2cn[nH]c2C1` (racemic) [Example 488], the Ki is 188 nM on TYK2, 87 nM on JAK3, 37.1 nM at JAK2 and 31.9 nM on JAK1.

Take `c1cc2c(ncc3ncn(C4CCCNCC4)c32)[nH]1` (racemic) [Example 489, 1-Azepan-4-yl-1,6-dihydro-1,3,5,6-tetraaza-as-indacene]: the inhibitory constant (Ki) was determined as 596 nM on TYK2, 322 nM on JAK3, 315 nM on JAK2 and 34 nM at JAK1.

Take `c1cc2c(ncc3ncn(CC4CCNC4)c32)[nH]1` (racemic) [Example 490, 1-Pyrrolidin-3-ylmethyl-1,6-dihydro-1,3,5,6-tetraaza-as-indacene]: the Ki at TYK2 was determined as 3430 nM; at JAK3, 1870 nM; at JAK2 it was 1110 nM; on JAK1, 391 nM.

As for `CCC(C)S(=O)(=O)NCc1nc2cnc3[nH]ccc3c2n1C1CCN(CCC#N)CC1` (racemic) [Example 502, Butane-2-sulfonic acid {1-[1-(2-cyano-ethyl)-piperidin-4-yl]-1,6-dihydro-1,3,5,6-tetraaza-as-indacen-2-ylmethyl}-amide], the inhibition constant Ki on TYK2 was 417 nM; at JAK3, 105 nM; at JAK2, 90.6 nM; at JAK1, 15.2 nM.

For the compound `CC(CC#N)N1CCC(n2c(CNS(C)(=O)=O)nc3cnc4[nH]ccc4c32)CC1` (racemic) [Example 507, N-{1-[1-(2-Cyano-1-methyl-ethyl)-piperidin-4-yl]-1,6-dihydro-1,3,5,6-tetraaza-as-indacen-2-ylmethyl}-methanesulfonamide], the Ki at TYK2 was 102 nM; on JAK3 it was 69.4 nM; at JAK2, 40.2 nM; on JAK1 it was 11.1 nM.

Take `O=C(NCCc1nc2cnc3[nH]ccc3c2n1C1CCCCC1)C1CC1(F)F` (racemic) [Example 515, 2,2-Difluoro-cyclopropanecarboxylic acid [2-(1-cyclohexyl-1,6-dihydro-1,3,5,6-tetraaza-as-indacen-2-yl)-ethyl]-amide]: the Ki stood at 25.2 nM at TYK2, 120 nM on JAK3, 43.5 nM on JAK2 and 2.41 nM on JAK1.

With `N#CCCN1CCC(n2c(CCC3CCCO3)nc3cnc4[nH]ccc4c32)CC1` (racemic) [Example 517, 3-(4-{2-[2-(Tetrahydro-furan-2-yl)-ethyl]-6H-1,3,5,6-tetraaza-as-indacen-1-yl}-piperidin-1-yl)-propionitrile], the Ki at TYK2 is 294 nM; on JAK3 it was 52.6 nM; on JAK2, 57.5 nM; on JAK1, 10.3 nM.

Take `FC1CNCCC1n1nnc2cnc3[nH]ccc3c21` (racemic) [Example 518, 1-(3-Fluoro-piperidin-4-yl)-1,6-dihydro-1,2,3,5,6-pentaaza-as-indacene]: the Ki was 1990 nM on TYK2, 1450 nM on JAK3, 854 nM on JAK2 and 227 nM at JAK1.

In the case of `N#CCC(=O)N1CCC(F)C(n2nnc3cnc4[nH]ccc4c32)C1` (racemic) [Example 519, 3-[4-Fluoro-3-(6H-1,2,3,5,6-pentaaza-as-indacen-1-yl)-piperidin-1-yl]-3-oxo-propionitrile], the Ki was 24.5 nM at TYK2, 33 nM at JAK3, 4.92 nM at JAK2 and 1.74 nM on JAK1.

Take `FC1CNCCC1n1cnc2cnc3[nH]ccc3c21` (racemic) [Example 520, 1-(3-Fluoro-piperidin-4-yl)-1,6-dihydro-1,3,5,6-tetraaza-as-indacene]: the Ki at TYK2 amounted to 261 nM; on JAK3 it was 412 nM; on JAK2, 128 nM; on JAK1, 38.2 nM.

`FC1CNCCC1n1nnc2cnc3[nH]ccc3c21` (racemic) [Example 525, 1-(3-Fluoro-piperidin-4-yl)-l,6-dihydro-1,2,3,5,6-pentaaza-as-indacene]: the Ki on TYK2 came out at 96.8 nM; at JAK3, 87.6 nM; on JAK2 it was 33.2 nM; on JAK1, 12.3 nM.

As for `CC(O)c1nc2cnc3[nH]ccc3c2n1C1CCN(S(C)(=O)=O)CC1` (racemic) [Example 527, 1-[1-(1-Methanesulfonyl-piperidin-4-yl)-1,6-dihydro-1,3,5,6-tetraaza-as-indacen-2-yl]-ethanol], the Ki at TYK2 came to 65.2 nM; at JAK3 it was 189 nM; on JAK2 it was 200 nM; on JAK1, 107 nM.

Regarding `CC(O)c1nc2cnc3[nH]ccc3c2n1C1CCN(C(=O)N(C)C)CC1` (racemic) [Example 528, 4-[2-(1-Hydroxy-ethyl)-6H-1,3,5,6-tetraaza-as-indacen-1-yl]-piperidine-1-carboxylic acid dimethylamide], the Ki was determined as 1410 nM at TYK2, 187 nM on JAK3, 396 nM at JAK2 and 156 nM on JAK1.

In the case of `CC(O)c1nc2cnc3[nH]ccc3c2n1C1CCN(CC(=O)N2CCCCC2)CC1` (racemic) [Example 529, 2-{4-[2-(1-Hydroxy-ethyl)-6H-1,3,5,6-tetraaza-as-indacen-1-yl]-piperidin-1-yl}-1-piperidin-1-yl-ethanone], the inhibition constant Ki on TYK2 came to 2170 nM; at JAK3, 561 nM; on JAK2 it was 284 nM; on JAK1, 19.6 nM.

As to `CCN1CCC(n2c(C)nc3cnc4[nH]ccc4c32)C(F)(F)C1` (racemic) [Example 531, 1-(1-Ethyl-3,3-difluoro-piperidin-4-yl)-2-methyl-1,6-dihydro-1,3,5,6-tetraaza-as-indacene], the Ki on TYK2 was determined as 21.2 nM; at JAK3 it was 4.23 nM; on JAK2, 4.58 nM; at JAK1, 1.77 nM.

As to `CCN1CCC(n2cnc3cnc4[nH]ccc4c32)C(F)(F)C1` (racemic) [Example 532, 1-(1-Ethyl-3,3-difluoro-piperidin-4-yl)-1,6-dihydro-1,3,5,6-tetraaza-as-indacene], the Ki on TYK2 amounted to 23.8 nM; at JAK3, 30.4 nM; at JAK2, 6 nM; on JAK1, 2.86 nM.

For the compound `CCN1CCC(n2nnc3cnc4[nH]ccc4c32)C(F)(F)C1` (racemic) [Example 533, 1-(1-Ethyl-3,3-difluoro-piperidin-4-yl)-1,6-dihydro-1,2,3,5,6-pentaaza-as-indacene], the Ki at TYK2 turned out to be 59.7 nM; at JAK3 it was 48.8 nM; at JAK2, 15.7 nM; at JAK1, 9.05 nM.

For `COC1CN(C)CCC1n1c(C)nc2cnc3[nH]ccc3c21` (racemic) [Example 534, 1-(3-Methoxy-1-methyl-piperidin-4-yl)-2-methyl-1,6-dihydro-1,3,5,6-tetraaza-as-indacene], the Ki was 150 nM at TYK2, 88.9 nM at JAK3, 24.4 nM at JAK2 and 9.86 nM at JAK1.

With `COC1CNCCC1n1c(C)nc2cnc3[nH]ccc3c21` (racemic) [Example 535, 1-(3-Methoxy-piperidin-4-yl)-2-methyl-1,6-dihydro-1,3,5,6-tetraaza-as-indacene], the Ki is 88.2 nM on TYK2, 225 nM at JAK3, 44.9 nM at JAK2 and 12 nM at JAK1.

With `COC1CNCCC1n1nnc2cnc3[nH]ccc3c21` (racemic) [Example 536, 1-(3-Methoxy-piperidin-4-yl)-1,6-dihydro-1,2,3,5,6-pentaaza-as-indacene], the Ki at TYK2 came to 235 nM; at JAK3, 1020 nM; at JAK2, 61.2 nM; on JAK1, 32.5 nM.

For the compound `COC1CNCCC1n1cnc2cnc3[nH]ccc3c21` (racemic) [Example 537, 1-(3-Methoxy-piperidin-4-yl)-1,6-dihydro-1,3,5,6-tetraaza-as-indacene], the Ki was determined as 122 nM at TYK2, 322 nM at JAK3, 33.8 nM on JAK2 and 25.2 nM at JAK1.

For the compound `COC1CN(CCC#N)CCC1n1c(C)nc2cnc3[nH]ccc3c21` (racemic) [Example 538, 3-[3-Methoxy-4-(2-methyl-6H-1,3,5,6-tetraaza-as-indacen-1-yl)-piperidin-1-yl]-propionitrile], the Ki at TYK2 is 8.66 nM; at JAK3 it was 4.01 nM; on JAK2, 0.89 nM; on JAK1, 0.86 nM.

The record behind these values is patent US8461328B2, “Tricyclic heterocyclic compounds, compositions and methods of use thereof” (Genentech, Inc., priority 2010, dated 2013).
